Columns and labels:
EDG-6 [1] = assay: SRE reporter in 293-EBNA cells, EDG-6; type: cell-based, human; details: 10 μM LPA
From the text: (§1) LPA, like S1P, is abundant in serun, but not plasma. Moreover, LPA is produced as a consequence of phospholipase A2 with or without the contribution of phospholipase D (depending on the phospholipid substrate). […] To date we have identified three subtypes of edg receptors that respond to LPA as an agonist. These are EDG-2, EDG-6 and EDG-5 (referred to also as LPA1, LPA2 and LPA3, respectively (Chun, J, Contos, J J A and Munroe, D G. 1998. A growing family of receptor genes for lysophosphatidic acid (LPA) and other lyso-phospholipids. Cell Biochem Biophys (in press)). The EDG-5 receptor is set out in co-pending U.S. application Ser. No. 08/997,803 to MLUNROE et al., incorporated herein by reference and the amino acid sequence and cDNA sequence for the EDG-6 receptor is set out in FIGS. 21 and 22, respectively. To determine whether these receptors might mediate inflammatory responses, each was cotransfected separately with SRE, NF-κB or AP-1 reporter genes. […] This transcription factor, like NF-κB has been implicated in inflammatory and neoplastic signal transduction., though the gene targets of its action are largely distinct from those of NF-κB (Adcock IM. 1997. Transcription factors as activators of gene transcription: AP-1 and NF-κB. Monaldi Arch Chest Dis 52:178-186. Review). […]
Target sequence in this assay (Q9HBW0 1-330 limits assumed): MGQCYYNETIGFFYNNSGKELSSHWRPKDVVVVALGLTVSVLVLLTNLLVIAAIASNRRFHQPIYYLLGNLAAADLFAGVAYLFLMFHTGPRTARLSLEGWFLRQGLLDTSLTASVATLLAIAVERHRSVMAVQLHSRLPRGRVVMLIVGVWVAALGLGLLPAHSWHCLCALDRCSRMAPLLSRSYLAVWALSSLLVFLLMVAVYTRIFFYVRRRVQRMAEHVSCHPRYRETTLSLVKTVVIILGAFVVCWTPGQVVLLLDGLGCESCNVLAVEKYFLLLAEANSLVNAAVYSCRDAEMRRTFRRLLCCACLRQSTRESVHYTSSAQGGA

EDG-2 [2] = target: T1, EDG-2 (Homo sapiens, UniProt Q92633); assay: AP-1 reporter in 293-EBNA cells, EDG-2; type: cell-based; details: 10 μM LPA
T1 construct: expressed in transfected cells; host or cells: 293-EBNA
T1 sequence (Q92633 whole entry): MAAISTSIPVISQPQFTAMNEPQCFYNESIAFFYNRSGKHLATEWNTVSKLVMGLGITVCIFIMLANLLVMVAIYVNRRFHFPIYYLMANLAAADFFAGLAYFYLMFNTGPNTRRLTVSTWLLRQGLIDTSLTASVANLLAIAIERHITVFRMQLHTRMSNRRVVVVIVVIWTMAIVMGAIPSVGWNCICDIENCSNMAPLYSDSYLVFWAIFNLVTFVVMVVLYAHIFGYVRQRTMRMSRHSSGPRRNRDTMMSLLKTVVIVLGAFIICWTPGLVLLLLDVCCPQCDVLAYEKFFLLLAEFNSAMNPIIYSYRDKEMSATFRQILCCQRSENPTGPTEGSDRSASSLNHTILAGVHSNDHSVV
From the text: as §1

EDG-2 [3] = target: T1, EDG-2; assay: SRE reporter in 293-EBNA cells, EDG-2; type: cell-based; details: 10 μM LPA
From the text: as §1

[4] = system: 293-EBNA cells transfected with empty expression vector pcDNA3; assay: SRE luciferase reporter in 293-EBNA cells, empty vector pcDNA3; type: cell-based; details: 10 μM LPA
Protocol: NE-κB activates gene expression by binding to specific DNA sequences found in the promoters of genes regulated by this inflammation-related transcription factor. […] The SRE reporter was identical to the NF-κB reporter, except that the NF-κB binding sites were replaced with 2 SRE sites. The new reporter was called 2XSREtk-p4Luc-zeo.
The protocol described in Example 11 for Assay 1 was followed except for the following changes:
(§2) 2) SRE Cotransfection: 0.5 μg of 2XSREtk-p4Luc-zeo reporter DNA and 3.5 μg pcDNA3, EDG-1, EDG-3 (pC3-hE3HP2, different from the clone used in Assay 2 of Example 11) or the newly cloned human EDG-4 (pC3-hedg4#36); NF-κB Cotransfection: 2 μg 6XNFκBtk-p4Luc-zeo reporter DNA and 2.0 μg pcDNA3, EDG-1, EDG-3 (pC3-hE3HP2), or EDG-4 (pC3-hedg4#36). Expression plasmid and reporter plasmid DNA samples were combined and diluted in 750 μl of DMEM/F12 (serum free media) and 20 μl Plus Reagent (Lipofectamine Plus Kit, Life Technologies Cat. 10964-013), and incubated at room temperature for 15 min.
(§3) 1) Media was removed and cells treated with compounds diluted in DMEM/F12 media.
(§4) 2) The cells were treated for 6 hours.
Transfection was accomplished using the Lipofectamine Plus kit (Life Technologies, Cat. 10964-013), using the manufacturer's recommended conditions.
(§5) 293-EBNA cells were grown, lipofected in monolayer cultures, and pretreated as described above for Example 11, assay #1, except that NF-κB and AP-1 reporter-transfected cells were pretreated for 6 hr in medium containing 0.5% FBS, then treated overnight in the same medium with or without 10 μM LPA.

[5] = system: Human Umbilical Vein Endothelial Cells (HUVEC); assay: IL-8 ELISA on primary cultured HUVEC treated with lysolipids; type: cell-based; details: 5 μM, 6 hr
Protocol: Plating, Pretreatment and Treatment of HUVEC
Procedures were followed as detailed above in “Procedure #1 for HeLa Cells” with the following exceptions:
Cells were plated at 20,000 cells/well into 24-well plates. The next day, cells were serum-starved overnight in EBM medium (Clonetics) with 0.5% FBS, and then treated in EBM without FBS for 6 hr with the following lysolipids:
Supematants were collected and IL-8 levels were deternined using ELISA as described previously.

EDG-6 [6] = assay: NF-κB reporter in 293-EBNA cells, EDG-6; type: cell-based, human; details: 10 μM LPA, overnight
From the text: as §1
Target sequence in this assay (Q9HBW0 1-340 limits assumed): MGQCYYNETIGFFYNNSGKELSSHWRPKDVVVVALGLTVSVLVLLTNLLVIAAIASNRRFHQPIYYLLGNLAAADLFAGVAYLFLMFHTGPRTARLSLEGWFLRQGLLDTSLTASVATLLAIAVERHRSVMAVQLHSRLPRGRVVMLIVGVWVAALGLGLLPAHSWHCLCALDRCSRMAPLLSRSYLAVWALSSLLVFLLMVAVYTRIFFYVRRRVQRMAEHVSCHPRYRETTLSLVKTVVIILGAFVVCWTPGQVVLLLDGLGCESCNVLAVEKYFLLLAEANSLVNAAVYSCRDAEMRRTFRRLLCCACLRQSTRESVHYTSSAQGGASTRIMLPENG

[7] = system: 293-EBNA cells transfected with empty expression vector pcDNA3; assay: AP-1 reporter in 293-EBNA cells, empty vector pcDNA3; type: cell-based; details: 10 μM LPA
From the text: as §1

EDG-2 [8] = target: T1, EDG-2; assay: NF-κB reporter in 293-EBNA cells, EDG-2; type: cell-based; details: 10 μM LPA, overnight
From the text: as §1

293-EBNA cells = assay: IL-8 production in untransfected 293-EBNA cells; type: cell-based
EDG-5 [9] = target: T2, EDG-5 (Homo sapiens, UniProt Q9UBY5); assay: SRE reporter in 293-EBNA cells, EDG-5; type: cell-based; details: 10 μM LPA
T2 construct: expressed in transfected cells; host or cells: 293-EBNA
T2 sequence (Q9UBY5 1-353): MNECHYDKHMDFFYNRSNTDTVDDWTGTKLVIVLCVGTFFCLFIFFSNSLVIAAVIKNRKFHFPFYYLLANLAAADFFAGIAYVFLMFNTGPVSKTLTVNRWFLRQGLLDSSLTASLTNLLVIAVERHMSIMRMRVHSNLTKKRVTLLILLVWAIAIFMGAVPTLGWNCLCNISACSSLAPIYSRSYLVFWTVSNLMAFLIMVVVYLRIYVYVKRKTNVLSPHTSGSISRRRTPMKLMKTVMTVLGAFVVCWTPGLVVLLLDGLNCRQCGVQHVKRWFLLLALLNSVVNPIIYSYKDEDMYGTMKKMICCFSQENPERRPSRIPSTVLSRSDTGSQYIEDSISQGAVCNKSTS
From the text: as §1

EDG-6 [10] = assay: AP-1 reporter in 293-EBNA cells, EDG-6; type: cell-based, human; details: 10 μM LPA
From the text: as §1
Target sequence in this assay (Q9HBW0 1-340 limits assumed): as the sequence (Q9HBW0 1-340 limits assumed) above

EDG-5 [11] = target: T2, EDG-5; assay: NF-κB luciferase reporter in 293-EBNA cells, EDG-5; type: cell-based; details: 10 μM LPA, overnight
Protocol: Transient Transfection Protocol for 293-EBNA
(§6) The above protocol for assay 1 was followed except for the following changes:
(§7) 2) 3 μg NFκB-tk-p4Luc reporter DNA and 3 μg pC3-hedg1, pC3-hedg3, pC3-redg4, pC3-hedg5 or pcDNA3 DNA was diluted in 240 μl OPTI-MEM (Gibco; Cat. 31985-062)
1) 0.01×10^6 cells were plated per well of a 96-well Blackview plate coated with polyD-lysine. No cells were plated in the outside wells of the 96-well plate.
LPA, like S1P, is abundant in serun, but not plasma. Moreover, LPA is produced as a consequence of phospholipase A2 with or without the contribution of phospholipase D (depending on the phospholipid substrate). […] To date we have identified three subtypes of edg receptors that respond to LPA as an agonist. These are EDG-2, EDG-6 and EDG-5 (referred to also as LPA1, LPA2 and LPA3, respectively (Chun, J, Contos, J J A and Munroe, D G. 1998. A growing family of receptor genes for lysophosphatidic acid (LPA) and other lyso-phospholipids. Cell Biochem Biophys (in press)). The EDG-5 receptor is set out in co-pending U.S. application Ser. No. 08/997,803 to MLUNROE et al., incorporated herein by reference and the amino acid sequence and cDNA sequence for the EDG-6 receptor is set out in FIGS. 21 and 22, respectively. To determine whether these receptors might mediate inflammatory responses, each was cotransfected separately with SRE, NF-κB or AP-1 reporter genes. […]

HL-60 cells = assay: IL-8 ELISA on HL-60 cells; type: cell-based, human; details: 1, 6 or 24 hr, S1P or LPA up to 3 μM, TNF-α 10 ng/ml
Protocol: Procedure for HL-60 Cells:
Cells: HL-60 (promyelocytic, human) suspension cells
Media: RPMI 1640 medium with 2 mM L-glutamine adjusted to contain 4.5 g/L glucose, 10 mM HEPES, and 1.0 mM sodium pyruvate+10% FBS
1) Cells were plated at a density of 0.25×10^6 cells/ml.
2) Cell pellcts were resuspended in 0.5% FBS media at a density of approximately 1×10^6 cells/ml.
1) Made up all required solutions in 0.5% FBS media (control).
2) 1.4 ml appropriate treatments were added to each well of a 6-well plate.
5) 100 μl cell suspension was added to each well.
7) After the specified time cell supematants were collected into 1.5 ml eppendorf tubes, spun down at 14000 rpm for 5 minutes and stored at −20° C.
D. Refer to Procedure #1 For HeLa Cells (D).

[12] = system: 293-EBNA cells transfected with empty expression vector pcDNA3; assay: NF-κB luciferase reporter in 293-EBNA cells, empty vector pcDNA3; type: cell-based; details: pcDNA3; 10 μM LPA; overnight
Protocol: Monolayer Transient Transfection Protocol for 293-EBNA
2) 6.6 μg NF-κB-tk-p4Luc reporter DNA and 6.6 μg of pC3-redg4 (expressing rat EDG-4), or pcDNA3 DNA was diluted in 500 μl OPTI-MEM (Gibco; Cat. 31985-062)
2) After 6 hrs, media was removed and cells treated with compounds diluted in 0.5% FBS media (140 μl added to each well).
3) Cells were treated for 24 hrs.
1) Luclite kit (Packard; Cat. 6016911) was used for luciferase assay. All reagents were brought to room temperature before use.
7) After incubation, plates were counted in a 12-detector Packard Top Count on a program without dark delay.
as §6, §7, §2, §3, §4, §5

EDG-5 [13] = target: T2, EDG-5; assay: AP-1 reporter in 293-EBNA cells, EDG-5; type: cell-based; details: 10 μM LPA
From the text: as §1

lysophosphatidic acid [LPA]
SRE reporter induction (EDG-6 [1]): strongly induced both reporters | Induction of the AP-1 reporter (EDG-2 [2]): greater than 2 fold | Induction of the SRE reporter (EDG-2 [3]): greater than 2 fold | Endogenous SRE reporter response vs untreated control cells [4]: about 1.5 fold | IL-8 levels increase over untreated controls [5]: 3 fold | Activation of the NF-κB reporter (EDG-6 [6]): 3-4 fold | Endogenous AP-1 reporter response vs untreated control cells [7]: about 1.5 fold | Activation of the NF-κB reporter (EDG-2 [8]): 3-4 fold | IL-8 production (293-EBNA cells): no IL-8 production | Induction of the SRE reporter (EDG-5 [9]): greater than 2 fold | AP-1 reporter induction (EDG-6 [10]): strongly induced both reporters | Activation of the NF-κB reporter (EDG-5 [11]): 3-4 fold | IL-8 release (HL-60 cells): no such release | NF-κB reporter response in control cells [12]: no response to LPA | Induction of the AP-1 reporter (EDG-5 [13]): greater than 2 fold

From patent US6482609B1, “Isolated human EDG-4 receptor and polynucletide encoding said receptor” (priority 1997, dated 2002)
